Patent US10821100B2, “Triazolone compounds as mPGES-1 inhibitors” (Glenmark Pharmaceuticals S.A., priority 2012, dated 2020)

Target: T1, Recombinant human mPGES-1 (Homo sapiens, UniProt O14684)
T1 construct: made in house; host or cells: CHO cells (crude microsomal fractions)
T1 sequence (O14684 1-152): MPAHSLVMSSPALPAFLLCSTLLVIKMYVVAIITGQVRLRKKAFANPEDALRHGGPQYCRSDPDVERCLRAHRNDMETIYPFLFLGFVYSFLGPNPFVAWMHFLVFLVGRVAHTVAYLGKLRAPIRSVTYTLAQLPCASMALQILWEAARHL
Assay: In-vitro screening of mPGES-1 inhibitors (inhibition of PGE2 formation from PGH2, HTRF detection)
Format: biochemical
Conditions: mPGES-1 enzyme; for inhibition at 1 µM: 1 μM test compound, read-out: Percentage inhibition at 1 μM; for inhibition at 10 µM: 10 μM test compound, read-out: Percentage inhibition at 10 μM; for IC50: class symbols
Procedure, shortened: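 PGH2-to-PGE2 isomerization run for 1 min with 15 μM PGH2 after 10 min compound preincubation with microsomal enzyme (40–60 μg/mL) and 2.5 mM GSH, pH buffer 0.1 M potassium phosphate with EDTA. Stannous chloride quench, HTRF PGE2 readout, IC50 fitted against uninhibited reaction.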

SMILES	inhibition at 1 µM (crude microsomal fractions)	inhibition at 10 µM (crude microsomal fractions)	IC50	inhibition at 3 µM (3 μM test compound, crude microsomal fractions, read-out: Percentage inhibition at 3 μM)
CCn1c(-c2c(F)cccc2Cl)nn(-c2ccc(C#Cc3cccc(Cl)c3F)cc2)c1=O [Example-71]	12.9%	17.9%	–	–
O=C(NCc1ccc(Cl)c(-n2nc(-c3ccc(C#Cc4cc(Cl)ccc4Cl)cc3F)[nH]c2=O)c1)C1CC1 [Example-78]	99.9%	99.9%	< 50 nM	–
O=C(NCc1ccc(Cl)c(-n2nc(-c3ccc(C#Cc4ccc(Cl)cc4F)cc3F)[nH]c2=O)c1)C1CC1 [Example-79, N-(4-Chloro-3-(3-(4-((4-chloro-2-fluorophenyl)ethynyl)-2-fluorophenyl)-5-oxo-4,5-dihydro-1H-1,2,4-triazol-1-yl)benzyl)cyclopropanecarboxamide]	99.1%	97.1%	< 50 nM	–
O=C(NCc1ccc(Cl)c(-n2nc(-c3ccc(C#Cc4cccc(Cl)c4F)cc3F)[nH]c2=O)c1)C1CC1 [Example-81, N-(4-Chloro-3-(3-(4-((3-chloro-2-fluorophenyl)ethynyl)-2-fluorophenyl)-5-oxo-4,5-dihydro-1H-1,2,4-triazol-1-yl)benzyl)cyclopropanecarboxamide]	99.8%	98%	< 50 nM	–
CC(C)(C)C(=O)NCc1ccc(Cl)c(-c2nn(-c3ccc(Cl)c(Cl)c3)c(=O)[nH]2)c1F [Example-83, N-(4-Chloro-3-(1-(3,4-dichlorophenyl)-5-oxo-4,5-dihydro-1H-1,2,4-triazol-3-yl)-2-fluorobenzyl)pivalamide]	97.5%	99.9%	< 50 nM	–
CC(C)(C)C(=O)NCc1ccc(Cl)c(-c2nn(-c3ccc(C(F)(F)F)cc3)c(=O)[nH]2)c1F [Example-84, N-(4-Chloro-2-fluoro-3-(5-oxo-1-(4-(trifluoromethyl)phenyl)-4,5-dihydro-1H-1,2,4-triazol-3-yl)benzyl)pivalamide]	98.8%	99.5%	< 50 nM	–
CC(C)(C)C(=O)NCc1ccc(Cl)c(-c2nn(-c3ccc(F)cc3F)c(=O)[nH]2)c1F [Example-85, N-(4-Chloro-j-(1-(2,4-difluorophenyl)-5-oxo-4,5-dihydro-1H-1,2,4-triazol-3-yl)-2-fluorobenzyl)pivalamide]	22.6%	69.3%	–	–
COc1ccc(-n2nc(-c3c(Cl)ccc(CNC(=O)C(C)(C)C)c3F)[nH]c2=O)cc1 [Example-86, N-(4-Chloro-2-fluoro-3-(1-(4-methoxyphenyl)-5-oxo-4,5-dihydro-1H-1,2,4-triazol-3-yl)benzyl)pivalamide]	79.9%	96.7%	> 100 nM	–
CC(C)(C)C(=O)NCc1ccc(Cl)c(-n2nc(-c3ccc(C(F)(F)F)cc3F)[nH]c2=O)c1F [Example-87, N-(4-Chloro-2-fluoro-3-(3-(2-fluoro-4-(trifluoromethyl)phenyl)-5-oxo-4,5-dihydro-1H-1,2,4-triazol-1-yl)benzyl)pivalamide]	93.4%	99.2%	50 to 100 nM	–
CC(C)(C)C(=O)NCc1ccc(Cl)c(-n2nc(-c3c(F)cccc3Cl)[nH]c2=O)c1F [Example-88, N-(4-Chloro-3-(3-(2-chloro-6-fluorophenyl)-5-oxo-4,5-dihydro-1H-1,2,4-triazol-1-yl)-2-fluorobenzyl)pivalamide]	3.34%	39.2%	–	–
CC(C)(C)C(=O)NCc1ccc(Cl)c(-c2nn(-c3ccc(C#N)cc3)c(=O)[nH]2)c1F [Example-89, N-(4-chloro-3-(1-(4-cyanophenyl)-5-oxo-4,5-dihydro-1H-1,2,4-triazol-3-yl)-2-fluorobenzyl)pivalamide]	95.3%	99.1%	< 50 nM	–
CC(C)(C)C(=O)NCc1ccc(Cl)c(-n2nc(-c3ccc(Cl)cc3F)[nH]c2=O)c1F [Example-90, N-(4-Chloro-3-(3-(4-chloro-2-fluorophenyl)-5-oxo-4,5-dihydro-1H-1,2,4-triazol-1-yl)-2-fluorobenzyl)pivalamide]	81.7%	97.2%	> 100 nM	–
O=C(NCc1ccc(Cl)c(-n2nc(-c3ccc(Cl)cc3F)[nH]c2=O)c1)C1CC1 [Example-91, N-(4-Chloro-3-(3-(4-chloro-2-fluorophenyl)-5-oxo-4,5-dihydro-1H-1,2,4-triazol-1-yl)benzyl)cyclopropanecarboxamide]	66.2%	94.3%	–	–
O=C(NCc1ccc(Cl)c(-n2nc(-c3ccc(C(F)(F)F)cc3F)[nH]c2=O)c1)C1CC1 [Example-92, N-(4-Chloro-3-(3-(2-fluoro-4-(trifluoromethyl)phenyl)-5-oxo-4,5-dihydro-1H-1,2,4-triazol-1-yl)benzyl)cyclopropanecarboxamide]	76%	99.4%	> 100 nM	–

Next, values leading:

inhibition at 1 µM (crude microsomal fractions)	inhibition at 10 µM (crude microsomal fractions)	IC50	inhibition at 3 µM (3 μM test compound, crude microsomal fractions, read-out: Percentage inhibition at 3 μM)	SMILES
97.4%	96.4%	< 50 nM	–	COc1cc(-n2nc(-c3cc(CNC(=O)C4CC4)ccc3Cl)[nH]c2=O)ccc1C(=O)Nc1cccc(C(F)F)c1 [Example-68, 4-(3-(2-Chloro-5-(cyclopropanecarboxamidomethyl)phenyl)-5-oxo-4,5-dihydro-1H-1,2,4-triazol-1-yl)-N-(3-(difluoromethyl)phenyl)-2-methoxybenzamide]
86.4%	89.1%	> 100 nM	–	COc1cc(-n2nc(-c3cc(S(=O)(=O)NC4CC4)ccc3Cl)[nH]c2=O)ccc1C(=O)Nc1cccc(C(F)(F)F)c1 [Example-69, 4-(3-(2-Chloro-5-(N-cyclopropylsulfamoyl)phenyl)-5-oxo-4,5-dihydro-1H-1,2,4-triazol-1-yl)-2-methoxy-N-(3-(trifluoromethyl)phenyl)benzamide]
0.55%	6.63%	–	–	CCn1c(-c2c(Cl)cccc2Cl)nn(-c2ccc(C(=O)Nc3cccc(C(F)(F)F)c3)c(OC)c2)c1=O [Example-70, 4-(3-(2,6-Dichlorophenyl)-4-ethyl-5-oxo-4,5-dihydro-1H-1,2,4-triazol-1-yl)-2-methoxy-N-(3-(trifluoromethyl)phenyl)benzamide]
99.2%	–	< 50 nM	99%	O=C(Nc1cccc(C(F)(F)F)c1)c1ccc(-n2nc(-c3cc(CNC(=O)C4CC4)ccc3Cl)[nH]c2=O)cc1 [Example-72, 4-(3-(2-Chloro-5-(cyclopropanecarboxamidomethyl)phenyl)-5-oxo-4,5-dihydro-1H-1,2,4-triazol-1-yl)-N-(3-(trifluoromethyl)phenyl)benzamide]
92.4%	92.4%	< 50 nM	–	COc1cc(-n2nc(-c3c(Cl)cccc3C#N)[nH]c2=O)ccc1C(=O)Nc1ccc(F)c(C(F)(F)F)c1 [Example-73, 4-(3-(2-Chloro-6-cyanophenyl)-5-oxo-4,5-dihydro-1H-1,2,4-triazol-1-yl)-N-(4-fluoro-3-(trifluoromethyl)phenyl)-2-methoxybenzamide]
93.2%	98.7%	50 to 100 nM	–	COc1cc(-c2nn(-c3c(Cl)cccc3Cl)c(=O)[nH]2)ccc1C#Cc1cccc(Cl)c1F [Example-74]
99.1%	98.3%	< 50 nM	–	COc1cc(-c2nn(-c3c(Cl)cccc3Cl)c(=O)[nH]2)ccc1C#Cc1ccc(C(F)(F)F)cc1Cl [Example-75, 3-(4-((2-Chloro-4-(trifluoromethyl)phenyl)ethynyl)-3-methoxyphenyl)-1-(2,6-dichlorophenyl)-1H-1,2,4-triazol-5(4H)-one]
95.6%	95.4%	< 50 nM	–	COc1cc(-c2nn(-c3c(Cl)cccc3Cl)c(=O)[nH]2)ccc1C(=O)Nc1cccc(C(F)(F)F)c1 [Example-76, 4-(1-(2,6-Dichlorophenyl)-5-oxo-4,5-dihydro-1H-1,2,4-triazol-3-yl)-2-methoxy-N-(3-(trifluoromethyl)phenyl)benzamide]
93.2%	98.1%	50 to 100 nM	–	COc1cc(-c2nn(-c3c(Cl)cccc3Cl)c(=O)[nH]2)ccc1C(=O)Nc1ccc(F)c(C(F)(F)F)c1 [Example-77, 4-(1-(2,6-Dichlorophenyl)-5-oxo-4,5-dihydro-1H-1,2,4-triazol-3-yl)-N-(4-fluoro-3-(trifluoromethyl)phenyl)-2-methoxybenzamide]
97%	97.1%	< 50 nM	–	O=C(NCc1ccc(Cl)c(-n2nc(-c3ccc(C#Cc4cccc(C(F)(F)F)c4)cc3F)[nH]c2=O)c1)C1CC1 [Example-80, N-(4-Chloro-3-(3-(2-fluoro-4-((3-(trifluoromethyl)phenyl)ethynyl)phenyl)-5-oxo-4,5-dihydro-1H-1,2,4-triazol-1-yl)benzyl)cyclopropanecarboxamide]
98.3%	99%	< 50 nM	–	O=C(NCc1ccc(Cl)c(-n2nc(-c3ccc(C#Cc4ccc(C(F)(F)F)cc4Cl)cc3F)[nH]c2=O)c1)C1CC1 [Example-82, N-(4-Chloro-3-(3-(4-((2-chloro-4-(trifluoromethyl)phenyl)ethynyl)-2-fluorophenyl)-5-oxo-4,5-dihydro-1H-1,2,4-triazol-1-yl)benzyl)cyclopropanecarboxamide]
96.8%	99.6%	< 50 nM	–	CC(C)(C)C(=O)NCc1ccc(Cl)c(-n2nc(-c3ccc(C(F)(F)F)cc3)[nH]c2=O)c1F [Example-93, N-(4-Chloro-2-fluoro-3-(5-oxo-3-(4-(trifluoromethyl)phenyl)-4,5-dihydro-1H-1,2,4-triazol-1-yl)benzyl)pivalamide]
